Data on five compounds can be found in PMC12121777 (PLOS One, 2025).

Converted amounts (≈) assume the structure as drawn. Like-named read-outs stand apart in the source and are kept apart here.

In one data set the test system is Bacillus subtilis. The arrangement: method as in PMID 30988267. Conditions: cited from earlier work.
A further data set relates to Mtb. The arrangement: method as in PMID 33462533. Conditions: cited from earlier work.
In a further data set the test system is Mtb 331/88 (i.e., H37Rv). Briefly: MIC, micro method in Šula's semisynthetic medium, drug-susceptible Mtb. It counts as cell-based, Mycobacterium tuberculosis. Conditions: Mycobacterium tuberculosis, H37RV.
Data set [1] deals with Mycobacterium avium 330/88. Briefly: MIC, micro method in Šula's semisynthetic medium, M. avium. It counts as cell-based.
For data set [2], the system named is Mycobacterium kansasii 6509/96. Briefly: MIC, micro method in Šula's semisynthetic medium, M. kansasii clinical isolate. It counts as cell-based. Conditions: read-out: MIC M. kansasii 6509/96.
In the next data set the test system is Mtb H37Ra pVV2. Briefly: microbe, parasite or virus in culture. Conditions: Mycobacterium tuberculosis, 672 h, 28 days. It counts as cell-based.
A further data set has as its system Mtb H37Ra pVV2-dprE2. Briefly: microbe, parasite or virus in culture. It counts as cell-based. Conditions: Mycobacterium tuberculosis, 672 h, 28 days.
For data set [3], the system named is Mtb H37Ra pVV2-dprE1/dprE2. Briefly: microbe, parasite or virus in culture. It counts as cell-based. The conditions noted are these: Mycobacterium tuberculosis, 672 h, 28 days.
The next data set concerns HepG2 cells. Briefly: Cytotoxicity on HepG2 cell line (CellTiter 96). It counts as cell-based, human. The conditions noted are these: Homo sapiens, HepG2, 24 h, read-out: IC50 HepG2.
A further data set relates to Danio rerio embryos. Briefly: Fish embryo test (FET). It counts as in vivo. The conditions noted are these: for mortality: as early as 48 h. How it is done: Fish maintenance. A day before the experiment, adult wild-type zebrafish (Danio rerio) were transferred into plastic spawning cages at the end of the 14-hour photoperiod. All fish were spawned at the onset of the following photoperiod. Fertilized eggs were collected within 30 minutes post-fertilization and inspected for health state and developmental stage using a stereomicroscope before exposure to 5g and 4h. Tested compounds were dissolved in DMSO; its concentration in 1 mM stock solution was 0.5%.
Fish embryo test (FET). Fish embryo tests were carried out using six different concentrations (0.001, 0.01, 0.1, 1, 10, and 100 μM) of each of the tested substances and controls over 96 hours at a constant temperature of 26.9°C (±1°C) under semi-static experimental set-up. The used medium was E3 according to Cold Spring Harbor Protocols (5 mM NaCl, 0.17 mM KCl, 0.33 mM CaCl2, 0.33 mM MgSO4). Each FET consists of 24 embryos per concentration, where each embryo is considered an individual replicate. Before the tests, all wells in the testing culture well plates were saturated by overnight incubation with corresponding concentrations of 5g and 4h. Before loading the embryos into the well plates, all solutions were replaced by freshly aerated ones with corresponding concentrations or controls. All solutions in the well plates were changed again after 48 hours of exposure to minimize a potential reduction in oxygen levels and compound concentration. Fish embryos were inspected and scored for mortality, morphological changes, or hatching success rates at 24-, 48-, 72-, and 96-hours post-exposure (hpe) under an inverted microscope (Olympus IX71; Olympus Czech Group, s.r.o., Czech Republic). […] In comparison, > 90% of the embryos in the positive control (3,4-dichloroaniline) were considered dead at the end of the 96-hour exposure. Morphological endpoints in our analysis were: (1) coagulation of fertilised eggs or developing embryos; (2) lack of somite formation; (3) lack of detachment of the tail bud from the yolk sac; (4) lack of heartbeat or heart defects (oedema); (5) malformations of body parts (head and tail region); (6) growth retardation. All morphological endpoints were used to determine the mortality (a positive endpoint means the embryo was considered dead).
For both compounds, the negative controls involved pure E3 medium and E3 medium containing 0.05% DMSO.

The next data set has as its system Mtb H37Rv. Briefly: Metabolic labeling with 14C acetate and TLC lipid analysis. Conditions: 10× and 100× MIC, 14C acetate, 24 h.
The test system of the next data set is Staphylococcus aureus. Details: method as in PMID 30988267. Conditions: cited from earlier work.

With `O=C(Nc1nnc(COc2ccccc2)o1)c1ccc([N+](=O)[O-])cc1` [X], the MIC in the data set with Bacillus subtilis is 780 µg/mL (≈ 2290 µM).

`Cc1ccc(-c2nnc(NC(=O)c3ccc([N+](=O)[O-])cc3)o2)cc1` [IX]: the MIC in the data set with Bacillus subtilis was 780 µg/mL (≈ 2410 µM).

For `O=c1nc(N2CCN(CC3CCCCC3)CC2)sc2c([N+](=O)[O-])cc(C(F)(F)F)cc12` [macozinone], the “MIC for Mtb” value in the data set with Mtb is on record as 0.002 µM.

What is called IC50 is the concentration needed to halve the response being measured. As usually defined, the mortality is the percentage killed. Higher therefore signals fewer survivors. Consider `CCCCCCCCNC(=O)NNC(=O)c1cc([N+](=O)[O-])cc([N+](=O)[O-])c1` [Compound 4h, 2-(3,5-Dinitrobenzoyl)-N-octylhydrazine-1-carboxamide], for which the MIC is 0.25 µM (≈ 0.0953 µg/mL) with Mtb 331/88 (i.e., H37Rv) (336 h, 14 days); 0.5 µM (≈ 0.191 µg/mL) with Mtb 331/88 (i.e., H37Rv) (504 h, 21 days); 125 µM (≈ 47.7 µg/mL) in data set [1] (330/88, 336 h, read-out: MIC M. avium 330/88); 250 µM (≈ 95.3 µg/mL) in [1] (330/88, 504 h, read-out: MIC M. avium 330/88); 125 to 250 µM (≈ 47.7 to 95.3 µg/mL) in [1] (330/88, read-out: MIC M. avium); 1 µM (≈ 0.381 µg/mL) in [2] (6509/96, 168 h). The MIC in data set [2] (6509/96, 336 h) is 1 µM (≈ 0.381 µg/mL); in data set [2] (6509/96, 504 h) it was 1 µM (≈ 0.381 µg/mL); against Mtb H37Ra pVV2, under 0.5 µM; in the data set on Mtb H37Ra pVV2-dprE2, under 0.5 µM; in data set [3] it was over 2.5 µM. In the data set with HepG2 cells, the 50% inhibitory concentration (IC50) amounted to 136 µM. For the same compound, the “mortality at 1 µM” value with Danio rerio embryos (1 µM) is listed as “no significant mortality”. The mortality in the data set on Danio rerio embryos (10 µM) and in the data set with Danio rerio embryos (100 µM) was 100% throughout. The lethality with Danio rerio embryos (100 µM, end of the 96 hours) turned out to be 100%. Also, the observed lethal endpoints entry in the data set on Danio rerio embryos (0.001–100 µM, 96-hour exposure) was “embryo coagulation and growth retardation”. Besides, the “embryo coagulation, share of all observed endpoints” value with Danio rerio embryos (whole exposure period) is reported as over 35%. In addition, the “lipid profile of treated cells vs untreated cells” value in the data set with Mtb H37Rv is “accumulation of TMM and TDM”.

For `Cc1ccc(C(=O)Nc2nnc(-c3ccc(C)cc3)o2)cc1` [VIII], the MIC in the data set on Staphylococcus aureus is 1560 µg/mL (≈ 5320 µM).
